Test results reported in patent publication US20050215604A1, “Combination therapies with epothilones and carboplatin” (Kosan Biosciences, Inc., priority 2004, published 2005).

Columns and labels:
[1] = test system: human NSCLC cell lines A549, H23, H226, H358, H460, and H522; test: MTS cell viability assay across the NSCLC panel, single agents and constant-ratio combination; format: cell-based; conditions: single agent, 1 pM to 10 μM, 3 days; carboplatin judged at 10,000 nM
Experimental: (§1) The human NSCLC (non-small cell lung cancer) cell lines A549, H23, H226, H358, H460, and H522 were seeded in 96 well plates (5000 cells/well); after overnight incubation, the cells were treated with epothilone D or carboplatin alone or epothilone D and carboplatin in combination. Once the IC50 value of each drug was obtained, the combined drug treatment was designed at constant ratios of the two drugs and the treatment schedule varied: either epothilone D or carboplatin was administered first with the second drug added 24 hours later. Cell viability was assayed by the MTS assay. […] Cells were treated with epothilone D or carboplatin at varying concentrations, ranging from 1 pM to 10 μM, for 3 days. Cell viability was determined using the using the MTS assay (Promega). IC50 is defined as the concentration of drug required to inhibit cell growth by 50%.

[2] = test system: human lung cancer xenograft MV522; test: Human lung cancer xenograft in nude mice; format: in vivo; conditions: ip, epothilone D twice a day for 7 days (6 to 14 mg/kg/day), carboplatin daily for 5 days (10 to 40 mg/kg/day), dose dependent
Experimental: (§2) The drug combination was also tested in nude mice bearing the human lung cancer xenografts MV522 and SK-MES. Fragments of human tumor carcinomas harvested from subcutaneously growing tumors in nude mice hosts were implanted subcutaneously. When tumors were approximately 60-75 mg in size (10-14 days after implantation), mice were pair matched into treatment and control groups. Epothilone D was given intraperito-neally twice a day for 7 days (6 to 14 mg/kg/day), carboplatin intraperitoneally every daily for 5 days (10 to 40 mg/kg/day), various combinations of epothilone D (first) and carboplatin (second), or vehicle control.

[3] = test system: human lung cancer xenograft SK-MES; test: Human lung cancer xenograft in nude mice; format: in vivo; conditions: ip, epothilone D twice a day for 7 days (6 to 14 mg/kg/day), carboplatin daily for 5 days (10 to 40 mg/kg/day), dose dependent
Experimental: as §2

[4] = test system: A549; test: MTS cell viability assay, single agents; format: cell-based; conditions: Homo sapiens, A549, 72 h, read-out: IC50 (concentration of drug required to inhibit cell growth by 50%)
Experimental: as §1

[5] = test system: H226; test: MTS cell viability assay, single agents; format: cell-based; conditions: Homo sapiens, NCI-H226, 72 h, read-out: IC50 (concentration of drug required to inhibit cell growth by 50%)
Experimental: as §1

[6] = test system: H23; test: MTS cell viability assay, single agents; format: cell-based; conditions: Homo sapiens, NCI-H23, 72 h, read-out: IC50 (concentration of drug required to inhibit cell growth by 50%)
Experimental: as §1

[7] = test system: H358; test: MTS cell viability assay, single agents; format: cell-based; conditions: Homo sapiens, NCI-H358, 72 h, read-out: IC50 (concentration of drug required to inhibit cell growth by 50%)
Experimental: as §1

[8] = test system: H460; test: MTS cell viability assay, single agents; format: cell-based; conditions: Homo sapiens, NCI-H460, 72 h, read-out: IC50 (concentration of drug required to inhibit cell growth by 50%)
Experimental: as §1

[9] = test system: H522; test: MTS cell viability assay, single agents; format: cell-based; conditions: Homo sapiens, NCI-H522, 72 h, read-out: IC50 (concentration of drug required to inhibit cell growth by 50%)
Experimental: as §1

| SMILES | cytotoxic effects against cultured NSCLC human cancer cell lines [1] | antiproliferative activity (measured as tumor size), single agent [2] | antiproliferative activity (measured as tumor size), single agent [3] | IC50 [4] | IC50 [5] | IC50 [6] | IC50 [7] | IC50 [8] | IC50 [9] |
| --- | --- | --- | --- | --- | --- | --- | --- | --- | --- |
| [NH2][Pt]1([NH2])[O]C(=O)C2(CCC2)C(=O)[O]1 [Carboplatin, carboplatin] | essentially inactive | antiproliferative activity | antiproliferative activity | – | – | – | – | – | – |
| C/C1=C/CC(/C(C)=C/c2csc(C)n2)OC(=O)C[C@H](O)C(C)(C)C(=O)[C@H](C)[C@@H](O)[C@@H](C)CCC1 (stereo partly drawn) [Epothilone D, epothilone D] | potent cytotoxic effects | antiproliferative activity | antiproliferative activity | 40 nM | 50 nM | 37 nM | 40 nM | 33 nM | 40 nM |
